Square brackets hold non-standard residues; d marks the D form. Peptide text beside a SMILES is read from it. * marks the point of attachment. tBu = CC(C)(C)*
Legend:
[1] = test system: Rat osteoblast-like cells (ROS 17/2.8); assay: [3H]-thymidine incorporation, proliferation of osteoblast-like cells; format: cell-based; settings: ROS 17/2.8, 18 hrs incubation, 2 hrs pulse
Source text: Stimulation of osteoblast-like cell proliferation can be measured according to several art-recognized in vitro models. One such model is described in European Patent Publication No. 384,731, by Rodan et al, published Aug. 29, 1990, which is incorporated herein by reference. (Applicants have modified this method by reducing regent volumes to one-quarter those described and by utilizing Dulbecco's Modified eagle's Medium (DMEM).) In this model, proliferation (division) of, for example, rat osteoblast-like cells (rat osteosarcoma (ROS) cells, rat calvaria cells, etc.) is observed by measuring the amount of radiolabeled thymidine ([^3 H]thymidine) incorporated by these cells. ([^3 H]thymidine is "incorporated" by cellular DNA being synthesized as a result of cell proliferation.) The greater the level of [^3 H]thymidine measured, the greater the amount of proliferation of the osteoblast cells.
More specifically, a test sample (comprised of a test compound and osteoblast-like cells) and a control sample (comprised of only osteoblast-like cells) are pulsed with [^3 H]thymidine. The amount of [^3 H]thymidine incorporated by the cells is measured using a direct beta counter.
Rat osteoblast-like cells (ROS 17/2.8) are plated at 4×10^3 cells/well in a 96-well plate in Dulbecco's Modified eagle's Medium supplemented with 2% (v/v) Fetal Bovine Serum, and incubated for 6 hrs. Control (serum-free) medium and test medium (test sample and serum-free medium) are then added to the cells and this combination is incubated for 18 hrs. The cells are then pulsed with [^3 H]-thymidine (1 μCi/well) for 2 hrs. The medium is then removed, the cells are harvested onto glass fibre filters and the amount of [^3 H]-thymidine (counts per minute per well) incorporated into DNA is then determined using a direct beta counter. Values for control groups are then compared to values for treated groups.
(§1) The compound H-Tyr-D-Ala-Gly-Phe-D-Leu-OH ("DADLE") is screened to determine whether it stimulates proliferation of osteoblast-like cells. […] The medium is then removed, the cells are harvested onto glass fibre filters, and the amount of ^3 H-thymidine (counts per minute per well) incorporated into DNA is determined using a direct beta counter. […]
as §1, with “Tyr-D-Cys(S-t-butylthioether)-Gly-Phe-Leu-Thr(O-t-butylether) ("BUBUC")” for “H-Tyr-D-Ala-Gly-Phe-D-Leu-OH ("DADLE")”

[2] = test system: osteoblast-like cells; assay: enkephalin secretion from osteoblast-like cells, RIA of immunoreactive enkephalin; format: cell-based; settings: 48 hrs incubation
Description: In vitro release of enkephalin can be determined using any of several art-recognized in vitro models. One such model is described by Rosen et al., "Regulated Expression of Proenkephalin A in Normal Lymphocytes", 143 J. Immunol. 3703-07 (1989), which is incorporated herein by reference. In this model, "target cells" (preferably bone-derived cells, such as human osteoblast-like cells, rat calvaria cells, rat osteosarcoma cells, etc.) are incubated in tissue culture medium in the presence (test sample) and absence (control sample) of a test agent.
Osteoblast-like cells are incubated in tissue culture medium in the presence (test samples) and absence of the compound Tyr-Arg for 48 hrs. Peptides are extracted from packed cells by homogenization in 10 volumes of 0.2M HCl, heated to 100° C. for 3 min. and centrifuged at 15,000×g for 30 min. at 4° C. An aliquot of the resulting supernatant is purified on a C18 octadecyl Ampere minicolumn using a non-polar extraction procedure as recommended by the manufacturer of the columns. Another portion of the supernatant is lyophilized and reconstituted in 1.0 ml of 50 mM Tris-HCl (pH 8.0), 2 mM CaCl2 containing 20 µg/ml trypsin L-p-tosylamino-2-phenylethyl chloromethyl ketone. After trypsin digestion (2 hr at […]), samples are heated to 100° C. for 20 min., cooled and then treated with carboxypeptidaseB (0.2 μg/ml) for 1 hr. at 37° C. […]

[3] = test system: human subject with postmenopausal osteoporosis or low bone mass; assay: treatment of human subject with osteoporosis, vertebral density by dual-energy photon absorptiometry; format: in vivo
Description: A human subject weighing about 60 kg (132 lbs), suffering from postmenopausal osteoporosis, is treated by a method of this invention. Specifically, for two years, the enkephalin-degrading enzyme inhibitor DL-3-mercapto-2-benzylpropanoylglycine is administered orally, in a cyclical regimen, where each cycle consists of an active period of 28 days during which a tablet containing 160 mg of said inhibitor is administered each day, followed by a non-active period of 28 days during which the subject receives a daily supplement of calcium (1,000 mg/day), with repeat of cycle.
A human subject weighing about 60 kg (132 lbs), suffering from postmenopausal osteoporosis, is treated by a method of this invention. Specifically, for two years, the compound H-Tyr-D-Ala-Gly-Phe-D-Leu-OH ("DADLE") is administered to the subject, in a cyclical regimen, where each cycle consists of an active period of 28 days during which a solution containing 30 mg of DADLE is administered intravenously every day, followed by a non-active period of 28 days during which the patient receives a daily supplement of calcium (1,000 mg/day), with repeat of cycle.
(§2) A human subject weighing about 60 kg (132 lbs), suffering from postmenopausal osteoporosis, is treated by a method of this invention. Specifically, for two years, an enkephalin of the formula Tyr-D-Cys(S-t-butylthioether)-Gly-Phe-Leu-Thr(O-t-butylether) ("BUBUC") is administered to the subject, in a cyclical regimen, where each cycle consists of an active period of 28 days during which a solution containing 30 mg of BUBUC is intravenously administered each day, followed by a non-active period of 28 days during which the patient receives a daily supplement of calcium (1,000 mg/day), with repeat of cycle.
as §2, with “years, the” for “years, an”, “enkephalin secretagogue Tyr-Arg^1,” for “enkephalin of the formula Tyr-D-Cys(S-t-butylthioether)-Gly-Phe-Leu-Thr(O-t-butylether) ("BUBUC")”, “of Tyr-Arg” for “of BUBUC”, “the subject” for “the patient”, “cycle. […]” for “cycle.”
A human subject weighing about 60 kg (132 lbs), suffering from postmenopausal osteoporosis, is treated by a method of this invention. Specifically, each day for five years, the subject is administered 3 tablets, comprised as follows.
A human subject weighing about 60 kg (132 lbs) is evaluated approximately four years after spontaneous menopause, and is found to have low bone mass. The subject is then treated by a method of this invention to treat osteoporosis. Specifically, once each month for five years, the subject is administered, via intravenous injection, 5 ml of a solution comprised as follows.

[4] = molecular target: T1, delta opioid receptor (Cavia porcellus, UniProt A0A286XTF2); assay: inhibition of [3H]DPDPE binding, method of Goldstein et al.; design: species or system guinea pig; settings: radioligand [3H]DPDPE
T1 construct: A preferred source of delta opioid receptors is guinea pig brain; from tissue; host or cells: guinea pig brain
Source text: Affinity for delta opioid receptors can be measured by any of several art-recognized in vitro models. One such model is described by Goldstein et al., and is discussed above. According to this model, a test compound is screened for its ability to inhibit binding of a delta-selective radiolabeled ligand ("delta-selective radiolabeled ligand" refers to a radiolabeled compound that is known to have selective affinity to delta opioid receptors) to delta opioid receptor binding sites. More specifically, this in vitro model compares test samples (comprising a delta-selective radiolabeled ligand ("hot ligand"); the non-radiolabeled equivalent to the "hot ligand" ("cold ligand"); test compound at varying concentrations in each test sample; and delta opiate receptor material) and a control sample (comprising hot ligand; cold ligand; and delta opiate receptor material).
Following the protocol set forth by Goldstein et al., the samples are assayed for relative radioactivity.
In assessing a compound's in vitro affinity for delta opioid receptors according to the method described by Goldstein et al., the delta-selectiveradiolabeled ligand ("hot ligand") is preferrably [^3 H]Tyr-D-Pen-Gly-Phe-D-Pen-OH ("[^3 H]-DPDPE"). The preferred "cold ligand" is therefore H-Tyr-D-Pen-Gly-Phe-D-Pen-OH ("cold DPDPE" or "DPDPE"). A preferred source of delta opioid receptors is guinea pig brain. […]

[5] = 30 mg intravenously daily (substitutes at comparable levels), 28 days active / 28 days calcium, two years

T1 sequence (A0A286XTF2 1-366): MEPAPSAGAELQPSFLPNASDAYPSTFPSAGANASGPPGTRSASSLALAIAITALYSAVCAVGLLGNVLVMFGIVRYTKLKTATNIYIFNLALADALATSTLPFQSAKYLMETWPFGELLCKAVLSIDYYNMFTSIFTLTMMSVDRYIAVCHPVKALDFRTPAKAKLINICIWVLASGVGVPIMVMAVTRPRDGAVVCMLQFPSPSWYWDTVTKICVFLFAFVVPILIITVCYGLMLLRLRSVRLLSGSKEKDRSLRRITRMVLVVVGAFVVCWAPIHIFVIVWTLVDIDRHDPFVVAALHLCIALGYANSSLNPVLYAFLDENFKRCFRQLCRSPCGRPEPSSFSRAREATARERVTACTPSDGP

Row | SMILES | [3H]-thymidine incorporation (proliferation) vs control [1] | immunoreactive enkephalin, enkephalin secretion vs control [2] | density of vertebrae / bone mass [3, 5] | in vitro delta opioid receptor affinity (IC50 ≤1000 times the IC50 of non-radiolabeled DPDPE) [4] | density of vertebrae / bone mass ([3]; Example 8: 5 ml of 30.0 mg/ml solution i.v. once each month for five years)
1 | N=C(N)NCCC[C@H](NC(=O)[C@@H](N)Cc1ccc(O)cc1)C(=O)O [Tyr-Arg] | significantly stimulated proliferation of the osteoblast-like cells | stimulates enkephalin secretion by osteoblast-like cells | an increase in bone mass |  | 
2 | CC(C)C[C@H](NC(=O)[C@H](Cc1ccccc1)NC(=O)CNC(=O)[C@@H](CSC(C)(C)C)NC(=O)[C@@H](N)Cc1ccc(O)cc1)C(=O)N[C@H](C(=O)O)[C@@H](C)OC(C)(C)C [BUBUC, Tyr-D-Cys(S-t-butylthioether)-Gly-Phe-Leu-Thr(O-t-butylether)] (H-Y[dC](tBu)GFLT(tBu)-OH) | significantly stimulated proliferation of the osteoblast-like cells |  | an increase in bone mass | significant in vitro delta opioid receptor affinity | no significant loss in bone mass has occurred
